Measured values reported in the supplement of paper PMC8617591.

Key:
[1] = test system: Mycobacterium tuberculosis Erdman (autoluminescent); experiment: total FIC90 (Loewe) at 90% inhibition, three-drug combination (log2); higher = more antagonistic
Description: (§1)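 DiaMOND equipotent three-drug combination dose responses (10 doses, 1.5- or 2-fold spacing, centred on IC90) against autoluminescent M. tuberculosis Erdman in 8 in vitro models. Read-out is OD600, or luminescence for the intracellular and dormancy models, normalised to untreated wells. Hill-fit Einf, AUC25 and GRinf are potency metrics; FIC50 and FIC90 are total Loewe fractional inhibitory concentrations as log2 (negative = synergy).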

[2] = test system: Mycobacterium tuberculosis Erdman (autoluminescent); experiment: AUC25, normalised area under dose response up to IC25 (three-drug combination) (fraction (0-1)); higher = more potent at low dose
Description: as §1

[3] = test system: Mycobacterium tuberculosis Erdman (autoluminescent); experiment: GRinf, maximum normalised growth rate inhibition (three-drug combination) (unitless (-1 to 1)); higher = less effect (negative = killing)
Description: as §1

[4] = test system: Mycobacterium tuberculosis Erdman (autoluminescent); experiment: Einf, fitted maximum growth inhibition of three-drug combination (fraction); higher = stronger maximal inhibition
Description: as §1

[5] = test system: Mycobacterium tuberculosis Erdman (autoluminescent); experiment: total FIC50 (Loewe) at 50% inhibition, three-drug combination (log2); higher = more antagonistic
Description: as §1

CC(=O)NC[C@H]1CN(c2ccc(N3CCOCC3)c(F)c2)C(=O)O1 [linezolid] + O=[N+]([O-])c1cn2c(n1)OC[C@@H](OCc1ccc(OC(F)(F)F)cc1)C2 [pretomanid] + CO[C@H]1/C=C/O[C@@]2(C)Oc3c(C)c(O)c4c(O)c(c(/C=N/N5CCN(C)CC5)c(O)c4c3C2=O)NC(=O)/C(C)=C\C=C\[C@H](C)[C@H](O)[C@@H](C)[C@@H](O)[C@@H](C)[C@H](OC(C)=O)[C@@H]1C [rifampicin]
Conditions	AUC25, [2]	Einf, [4]	GRinf, [3]	total FIC50, [5]	total FIC90, [1]
in vitro model: acidic pH 5.7, time point: constant (~7 days, model-specific)	0.0793	0.893	-0.221	0.745	–
in vitro model: acidic pH 5.7, time point: terminal (~4-5 doublings, model-specific)	0.0641	0.987	-0.265	0.832	0.521
in vitro model: intracellular J774, time point: constant = terminal	–	0.98	-0.287	–	0.288

Conditions	AUC25, [2]	Einf, [4]	GRinf, [3]	total FIC50, [5]	total FIC90, [1]
in vitro model: butyrate, time point: constant (~7 days, model-specific)	0.0869	0.896	0.0695	0.127	0.148
in vitro model: butyrate, time point: terminal (~4-5 doublings, model-specific)	0.0669	0.948	0.0615	0.00331	-0.305
in vitro model: cholesterol 0.05 mM, time point: constant (~7 days, model-specific)	0.128	0.66	-0.0769	0.0451	–
in vitro model: cholesterol 0.05 mM, time point: terminal (~4-5 doublings, model-specific)	0.127	0.895	-0.203	0.545	-0.354
in vitro model: cholesterol-high 0.2 mM, time point: constant (~7 days, model-specific)	0.0921	0.885	-0.118	0.326	1.11
in vitro model: cholesterol-high 0.2 mM, time point: terminal (~4-5 doublings, model-specific)	0.0881	0.972	-0.505	0.645	0.499
in vitro model: dormancy (butyrate + nitrate, low O2), time point: constant (~7 days, model-specific)	0.0572	0.911	0.214	0.855	0.28
in vitro model: dormancy (butyrate + nitrate, low O2), time point: terminal (~4-5 doublings, model-specific)	0.0401	0.97	-0.0505	0.25	0.29
in vitro model: standard 7H9 glycerol, time point: constant = terminal	0.0674	0.915	0.0995	0.0346	-0.714
in vitro model: valerate, time point: constant (~7 days, model-specific)	0.1	0.89	-0.015	0.394	–
in vitro model: valerate, time point: terminal (~4-5 doublings, model-specific)	0.0505	0.925	0.0379	0.622	0.278

CC(=O)NC[C@H]1CN(c2ccc(N3CCOCC3)c(F)c2)C(=O)O1 [linezolid] + O=[N+]([O-])c1cn2c(n1)OC[C@@H](OCc1ccc(OC(F)(F)F)cc1)C2 [pretomanid] + NC(=O)c1cnccn1 [pyrazinamide]
Conditions	AUC25, [2]	Einf, [4]	GRinf, [3]	total FIC50, [5]	total FIC90, [1]
in vitro model: acidic pH 5.7, time point: constant (~7 days, model-specific)	0.0949	0.856	-0.473	0.268	–
in vitro model: acidic pH 5.7, time point: terminal (~4-5 doublings, model-specific)	0.0835	0.975	-0.473	0.91	-0.88
in vitro model: intracellular J774, time point: constant = terminal	–	0.986	-0.287	–	0.7

Conditions	AUC25, [2]	Einf, [4]	GRinf, [3]	total FIC50, [5]	total FIC90, [1]
in vitro model: butyrate, time point: constant (~7 days, model-specific)	0.104	0.885	0.0996	-0.0692	–
in vitro model: butyrate, time point: terminal (~4-5 doublings, model-specific)	0.0881	0.929	0.102	-0.254	0.667
in vitro model: cholesterol 0.05 mM, time point: constant (~7 days, model-specific)	0.14	0.706	-0.191	–	–
in vitro model: cholesterol 0.05 mM, time point: terminal (~4-5 doublings, model-specific)	0.145	0.93	-0.318	0.461	–
in vitro model: cholesterol-high 0.2 mM, time point: constant (~7 days, model-specific)	0.108	0.902	-0.152	0.147	–
in vitro model: cholesterol-high 0.2 mM, time point: terminal (~4-5 doublings, model-specific)	0.113	1	-1	0.0501	0.419
in vitro model: dormancy (butyrate + nitrate, low O2), time point: constant (~7 days, model-specific)	0.056	0.907	0.16	0.49	0.622
in vitro model: dormancy (butyrate + nitrate, low O2), time point: terminal (~4-5 doublings, model-specific)	0.0409	0.985	-0.287	0.47	0.511
in vitro model: standard 7H9 glycerol, time point: constant = terminal	0.0884	0.926	0.0609	0.706	–
in vitro model: valerate, time point: constant (~7 days, model-specific)	0.102	0.808	0.0778	-0.628	–
in vitro model: valerate, time point: terminal (~4-5 doublings, model-specific)	0.0792	0.891	0.177	-0.429	1.41

COc1c(N2C[C@@H]3CCCN[C@@H]3C2)c(F)cc2c(=O)c(C(=O)O)cn(C3CC3)c12 [moxifloxacin] + CO[C@H]1/C=C/O[C@@]2(C)Oc3c(C)c(O)c4c(O)c(c(/C=N/N5CCN(C6CCCC6)CC5)c(O)c4c3C2=O)NC(=O)/C(C)=C\C=C\[C@H](C)[C@H](O)[C@@H](C)[C@@H](O)[C@@H](C)[C@H](OC(C)=O)[C@@H]1C [rifapentine] + CO[C@H]1/C=C/O[C@@]2(C)Oc3c(C)c(O)c4c(O)c(c(/C=N/N5CCN(C)CC5)c(O)c4c3C2=O)NC(=O)/C(C)=C\C=C\[C@H](C)[C@H](O)[C@@H](C)[C@@H](O)[C@@H](C)[C@H](OC(C)=O)[C@@H]1C [rifampicin]
Conditions	AUC25, [2]	Einf, [4]	GRinf, [3]	total FIC50, [5]	total FIC90, [1]
in vitro model: acidic pH 5.7, time point: constant (~7 days, model-specific)	0.0724	0.838	0.0128	0.153	–
in vitro model: acidic pH 5.7, time point: terminal (~4-5 doublings, model-specific)	0.0677	0.973	-0.122	0.25	0.137
in vitro model: intracellular J774, time point: constant = terminal	–	0.952	-0.11	–	1.1

Conditions	AUC25, [2]	Einf, [4]	GRinf, [3]	total FIC50, [5]	total FIC90, [1]
in vitro model: butyrate, time point: constant (~7 days, model-specific)	0.102	0.883	0.109	0.138	2.35
in vitro model: butyrate, time point: terminal (~4-5 doublings, model-specific)	0.0922	0.952	0.0591	0.217	0.559
in vitro model: cholesterol 0.05 mM, time point: constant (~7 days, model-specific)	0.101	0.593	0.0182	0.609	–
in vitro model: cholesterol 0.05 mM, time point: terminal (~4-5 doublings, model-specific)	0.0956	0.891	-0.0633	0.426	1.76
in vitro model: cholesterol-high 0.2 mM, time point: constant (~7 days, model-specific)	0.0581	0.825	-0.0146	0.356	–
in vitro model: cholesterol-high 0.2 mM, time point: terminal (~4-5 doublings, model-specific)	0.0631	1	-0.758	0.707	0.468
in vitro model: dormancy (butyrate + nitrate, low O2), time point: constant (~7 days, model-specific)	0.0643	0.868	0.252	0.441	0.199
in vitro model: dormancy (butyrate + nitrate, low O2), time point: terminal (~4-5 doublings, model-specific)	0.0509	0.977	-0.14	0.539	0.615
in vitro model: standard 7H9 glycerol, time point: constant = terminal	0.0451	0.821	0.307	0.381	–
in vitro model: valerate, time point: constant (~7 days, model-specific)	0.0421	0.846	0.0605	0.542	–
in vitro model: valerate, time point: terminal (~4-5 doublings, model-specific)	0.0285	0.934	0.041	0.547	0.3
